Assay results from patent publication US9242984B2, “Pyrazolyl derivatives as Syk inhibitors” (Merck Sharp & Dohme Corp., priority 2012, dated 2016).
Read-outs that look alike come from different tables or passages of the source.

Biological target: T1, recombinant human Syk (GST-hSyk fusion protein) (Homo sapiens, UniProt P43405)
T1 construct: purchased Carna Biosciences 08-176
Assay: Homogeneous Time-Resolved Fluorescence (HTRF) assay for the recombinant human Syk enzyme
Assay type: biochemical
Details: 10-dose titration, 25 μM ATP
In short: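 IC50 came from a four-parameter fit over ten doses, 10 μM to 0.508 nM, with HTRF read-out (Eu-anti-pTyr antibody, SA-APC, EDTA stop, 30 min). The enzyme, 5 pM GST-hSyk, met compound for 10 min, then phosphorylated 250 nM biotin-peptide with 25 μM ATP and 5 mM Mg for 45 min at room temperature, pH 7.5.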

[1] = IC50 class, read-out: rhSYK Activity

SMILES	IC50 (read-out: rhSYK IC50) [nM]	IC50 [1] [nM]
Cc1cc(Nc2nccc(C(F)(F)F)n2)cc(-c2n[nH]c3ccccc23)c1 [Example 2.47, N-[3-(1H-indazol-3-yl)-5-methylphenyl]-4-(trifluoromethyl)-pyrimidin-2-amine]	–	100 to 1000
COc1ccnc(Nc2cc(C)cc(-c3cnn(C[C@H](O)C(=O)O)c3)c2)n1 [Example 11.2, (2S)-2-hydroxy-3-(4-{3-[(4-methoxy-pyrimidin-2-yl)amino]-5-methylphenyl}-1H-pyrazol-1-yl)-propanoic acid]	–	≤ 100
Cc1cc(Nc2nccc(C(F)F)n2)cc(-c2cnn(CC3OC(=O)NC3C)c2)c1 (single isomer, unassigned) [Example 23.13, 5-{[4-(3-{[4-(difluoromethyl)pyrimidin-2-yl]amino}-5-methylphenyl)-1H-pyrazol-1-yl]methyl}-4-methyl-1,3-oxazolidin-2-one]	–	≤ 100
Cc1cc(Nc2ncc(F)c(C)n2)cc(-c2cnn(C[C@](C)(O)CO)c2)c1 [Example 2.94, (2S)-3-(4-{3-[(5-fluoro-4-methylpyrimidin-2-yl)amino]-5-methylphenyl}-1H-pyrazol-1-yl)-2-methylpropane-1,2-diol]	–	≤ 100
Cc1cc(Nc2nccc(C(F)F)n2)cc(-c2cnn(CC3CCNC(=O)O3)c2)c1 (centres unmarked) [Example 2.81, 6-{[4-(3-{[4-(difluoromethyl)pyrimidin-2-yl]amino}-5-methylphenyl)-1H-pyrazol-1-yl]methyl}-1,3-oxazinan-2-one]	–	≤ 100
Cc1cc(Nc2nccc(C(F)(F)F)n2)cc(-c2cnn(C3CCC(C(=O)O)CC3)c2)c1 (centres unmarked) [Example 1.57, 4-[4-(3-methyl-5-{[4-(trifluoromethyl)pyrimidin-2-yl]amino}phenyl)-1H-pyrazol-1-yl]cyclohexanecarboxylic acid]	–	≤ 100
COc1ccnc(Nc2cc(C)cc(-c3cnn(CCC(=O)O)c3)c2)n1 [Example 2.1, 3-(4-(3-((4-methoxypyrimidin-2-yl)amino)-5-methylphenyl)-1H-pyrazol-1-yl)propanoic acid]	22.1	≤ 100
Cc1cc(Nc2cc(C3CC3)ccn2)nc(-c2cnn(CC3(O)CCC3)c2)c1 [Example 29.7, 1-[(4-{6-[(4-cyclopropylpyridin-2-yl)amino]-4-methylpyridin-2-yl}-1H-pyrazol-1-yl)methyl]cyclobutanol]	–	≤ 100
Cc1cc(Nc2nccc(C3CC3)n2)cc(-n2cc(CCC(=O)O)cn2)c1 [Example 19.3, 3-(1-{3-[(4-cyclopropylpyrimidin-2-yl)amino]-5-methylphenyl}-1H-pyrazol-4-yl)propanoic acid]	–	≤ 100
Cc1cc(Nc2nccc(C3CC3)n2)cc(-c2cnn(C[C@H](O)C(N)=O)c2)c1 [Example 6.5, (2S)-3-(4-{3-[(4-cyclopropyl-pyrimidin-2-yl)amino]-5-methylphenyl}-1H-pyrazol-1-yl)-2-hydroxypropan-amide]	–	≤ 100

Other lines, results leading:

IC50 (read-out: rhSYK IC50) [nM]	IC50 [1] [nM]	SMILES
57.5	≤ 100	Cc1cc(Nc2ncccn2)cc(-c2cnn(C(C)c3ccc(C(N)=O)cc3)c2)c1 (single isomer, unassigned) [Example 28.1, 4-(1-(4-(3-Methyl-5-(pyrimidin-2-ylamino)phenyl)-1H-pyrazol-1-yl)ethyl)benzamide]
1.7	≤ 100	Cc1cc(Nc2nccc(C(F)F)n2)cc(-c2cnn(C3CCCC(C)(O)C3O)c2)c1 (centres unmarked) [Example 22.6, 3-[4-(3-{[4-(difluoromethyl)pyrimidin-2-yl]amino}-5-methylphenyl)-1H-pyrazol-1-yl]-1-methylcyclohexane-1,2-diol]
–	≤ 100	Cc1cc(Nc2nccc(C)n2)cc(-c2cnn(CCC(=O)O)c2)c1 [Example 2.44, 3-(4-{3-methyl-5-[(4-methylpyrimidin-2-yl)amino]phenyl}-1H-pyrazol-1-yl)propanoic acid]
–	≤ 100	Cc1cc(Nc2nccc(C(F)F)n2)cc(-c2cnn(CC3OC(=O)NC3C3CC3)c2)c1 (centres unmarked) [Example 23.17, 4-cyclopropyl-5-{[4-(3-{[4-(difluoromethyl)pyrimidin-2-yl]amino}-5-methylphenyl)-1H-pyrazol-1-yl]methyl}-1,3-oxazolidin-2-one]
